The text below walks through data of publication PMC4558515, “Exploring the role of MKK7 in excitotoxicity and cerebral ischemia: a novel pharmacological strategy against brain injury” (Cell Death & Disease, 2015).

One series concerns 12 DIV cortical neurons. Kind of series: LDH assay, intrinsic toxicity of peptides on cortical neurons. Format: cell-based, rat. The note with it: 24 h treatment, 1, 2.5, 5 and 10 μM; one-way ANOVA, P>0.05, n=8. As to the method:
(§1) Neuroprotection was evaluated by an LDH assay.

Series [1] deals with cortical neurons (12 h OGD). Kind of series: LDH assay, protection against oxygen–glucose deprivation (OGD). The note with it: 5 μM, 30 min pre-treatment, n=6, P<0.01. Format: cell-based, rat. How it is done:
OGD was performed on cortical neurons maintained in an Hypoxia Incubator Chamber (StemCell Technologies, Vancouver, BC, Canada) for 12 h; during the first 4 min, oxygen in the chamber was replaced by a mixture of 95% N2 5% CO2; glucose deprivation was realized by substituting culture medium with glucose-free Neurobasal Medium (Life Technologies).
as §1

Series [2] deals with middle cerebral artery occlusion (MCAo) in rats. Kind of series: MCAo model (electrocoagulation), infarct volume by TTC staining. Format: in vivo, Sprague–Dawley rats.
The test system of series [3] is MKK7 (P-MKK7/MKK7) in ipsilateral brain of MCAo rats. Kind of series: Western blot P-MKK7/MKK7 ratio in ischemic brain tissue. The note with it: 11 mg/kg 30 min before MCAO, n=3, P<0.05. Format: in vivo, Sprague–Dawley rats. How it is done: Actin was used as loading control. […] Actin was used as loading control. […] Actin was used as loading control. […] Actin was used as loading control.
Part I. Ischemia reperfusion (n=43). […] After 90 min, the clip was removed. […] Animals were initially killed 24 h post lesion.
Background: In western blotting, separated proteins are transferred to a membrane and probed.

In series [4] the test system is MKK7 (P-MKK7/MKK7) in cortical neurons. Kind of series: Western blot P-MKK7/MKK7 ratio in cortical neurons. Particulars: 100 μM NMDA, versus CTR, n=6.
In series [5] the target is T1, human recombinant full-length MKK7 (Homo sapiens, UniProt O14733).
T1 construct: human recombinant full-length MKK7 (residues M1-R419, as in NCBI/Protein entry NP_660186.1); purchased ProQinase GmbH, Freiburg, Germany
T1 sequence (O14733 1-419): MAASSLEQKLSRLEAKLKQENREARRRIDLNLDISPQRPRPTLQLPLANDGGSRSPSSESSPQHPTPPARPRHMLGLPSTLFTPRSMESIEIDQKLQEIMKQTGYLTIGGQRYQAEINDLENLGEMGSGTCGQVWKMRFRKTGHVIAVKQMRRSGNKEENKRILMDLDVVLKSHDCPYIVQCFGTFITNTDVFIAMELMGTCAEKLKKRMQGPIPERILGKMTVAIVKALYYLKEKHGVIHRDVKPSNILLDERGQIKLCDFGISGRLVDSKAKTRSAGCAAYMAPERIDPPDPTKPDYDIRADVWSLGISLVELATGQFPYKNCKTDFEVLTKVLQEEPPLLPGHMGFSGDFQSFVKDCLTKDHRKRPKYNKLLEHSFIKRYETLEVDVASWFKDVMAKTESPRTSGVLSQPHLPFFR
The series is described as follows: SPR binding of GADD45β69–86 to immobilized recombinant MKK7 (ProteOn XPR36). The note with it: heterogenous ligand model. How it is done: Figure 2 GADD45β69–86 interacts with recombinant MKK7. Starting at time 0, the indicated concentrations of GADD45β69–86 were injected for 150 s over SPR sensor surfaces on which 5000 RUs of human recombinant MKK7 had been previously captured by amine coupling. The SPR chip was then washed with buffer alone to monitor ligand dissociation. Fitted sensorgrams show GADD45β69–86 binding to recombinant MKK7 in RUs. The data were obtained by subtracting the reference channels, containing bovine serum albumin or no polypeptides.
Binding studies were performed on a ProteOn XPR36 Protein Interaction Array system (Bio-Rad Laboratories, Hercules, CA, USA). Detection of GADD45β69–86 interaction with MKK7 was performed by immobilizing ~5000 resonance units (RUs) of human recombinant full-length MKK7 (residues M1-R419, as in NCBI/Protein entry NP_660186.1; ProQinase GmbH, Freiburg, Germany) on the surface of a sensor chip (GL-C chip, Bio-Rad) by amine-coupling chemistry. GADD45β69–86 molecules were then perfused over the chip for 150 s to allow association, followed by 500 s buffer (PBST) wash to monitor dissociation. Signals were normalized to control channels containing ~5000 RUs of bovine serum albumin or no proteins. […]

Series [6] concerns the target T2, human recombinant full-length MKK7 (mitogen-activated protein kinase kinase 7) (human, UniProt O14733-1 1-419).
T2 construct: the vendor's protein may carry one (surmise); also called recombinant MKK7; source: bought: ProQinase GmbH
T2 sequence (looked up): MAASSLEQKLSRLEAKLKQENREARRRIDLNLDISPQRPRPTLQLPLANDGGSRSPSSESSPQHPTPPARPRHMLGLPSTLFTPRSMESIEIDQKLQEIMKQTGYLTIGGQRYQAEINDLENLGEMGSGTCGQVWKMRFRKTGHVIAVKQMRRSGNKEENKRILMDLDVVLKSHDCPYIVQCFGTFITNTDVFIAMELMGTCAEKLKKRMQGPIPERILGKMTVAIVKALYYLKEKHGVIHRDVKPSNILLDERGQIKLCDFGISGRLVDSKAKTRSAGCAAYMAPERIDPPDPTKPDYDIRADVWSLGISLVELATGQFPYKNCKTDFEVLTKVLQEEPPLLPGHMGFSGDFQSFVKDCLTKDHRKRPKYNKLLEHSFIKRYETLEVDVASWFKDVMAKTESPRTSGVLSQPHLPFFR
The series is described as follows: SPR; ProteOn XPR36, GL-C chip; ~5000 RU of human recombinant full-length MKK7 immobilised by amine coupling; GADD45β_(69–86) perfused 150 s, then 500 s buffer (PBST) wash; referenced to channels with ~5000 RU bovine serum albumin or no protein; heterogenous ligand binding model. Particulars: both partners purified. (Surface plasmon resonance follows binding to a sensor surface in real time, without labels.)

The subject of a further series is MEK1/2. Particulars: cited from earlier work. An excerpt:
(§2) We took advantage of the growth arrest and DNA damage-inducible 45β (GADD45β) ability to bind MKK7.[9], [14], [15] GADD45β is involved in the control of cell stress responses in cell cycle, DNA repair and oncogenesis.[9], [16] […] More importantly, GADD45β inhibition is MKK7-specific and has no effect on MKK4, MKK3/6 and MEK1/2 activity.[9] The minimal essential domain of interaction between MKK7 and GADD45β has already been defined (GADD45β60–86 and 69–86 sequences).[15] We here used ...

Another series deals with MKK3/6. The note with it: cited from earlier work.
Excerpt: as §2

The test system of another series is MKK4. Particulars: cited from earlier work.
Excerpt: as §2

Another series deals with MKK7. The note with it: cited from earlier work.
Excerpt: as §2

Residues, ends and D or L forms follow the SMILES beside them. No end group written: not given here.

Consider “TAT-spacer-GADD45β60–86: cell-permeable MKK7 inhibitor peptide with spacer between TAT and GADD45β residues 60–86”, for which, in the series with 12 DIV cortical neurons, the “neuronal death (LDH), intrinsic toxicity” value is given as “did not induce neuronal death”. Moreover, the “inhibition of neuronal death induced by OGD (LDH)” value in series [1] is 95%. Also, in series [2] (1 week after MCAo, administration time not given), the “reduction of infarct volume (abstract)” value stood at 49%. Besides, the “infarct volume, in words” value in series [2] (12-h post-ischemic injection, not shown) is “did not significantly decrease the infarct volume”. Besides, the “percentage of ischemic volume on the whole rat brain” value in series [2] (30 min before lesion, 24 h after lesion, mean±s.d., n=6, control 13.72±4.07% (n=5), P<0.01) came to 7.85±2.03%; in [2] (injected 6 h post lesion, 24 h after lesion, mean±S.D., n=5, P<0.01) it was 8.04±1.04%. Besides, the “reduction of infarcted volume” value in [2] (ICV (2 μl of 11 μg/μl; legend: 11 mg/kg) 30 min before lesion, 24 h after lesion, P<0.01) was 43%. Moreover, the “reduction of infarct volume” value in [2] (injected 6 h post ischemia, 1 week after MCAo) is 44%; in [2] (pre-ischemic (30 min before) administration, 1 week after MCAo) it was around 50%. In series [2] (injected 6 h post ischemia, 1 week after lesion), the “reduction of infarct volume (Conclusions)” value is reported as 49%. The “percentage of ischemic volume” value in series [2] (injected 6 h post lesion, 1 week after MCAo, mean±S.D., n=5, P<0.01) is given as 6.95±0.93%; in [2] (pre-ischemic (30 min before) administration, 1 week after MCAo, mean±S.D., n=5, control 12.42±2.22% (n=5), P<0.01), 6.22±0.98%. The “reduction of P-MKK7/MKK7 ratio” value in series [3] (3 h after ischemia) is listed as 54%; in [3] (6 h after ischemia) it was 33%.

Consider `CN[C@H](CC(=O)O)C(=O)O` [NMDA, N-methyl-D-aspartate, reference compound], for which the “increase of MKK7 phosphorylation” value amounted to 1.7 fold in [4] (5 min), 1.5 fold in series [4] (30 min) and 1.9 fold in [4] (60 min).

As for `CC[C@H](C)[C@H](N)C(=O)N[C@@H](C)C(=O)N[C@@H](CC(C)C)C(=O)N[C@@H](CCC(N)=O)C(=O)N[C@H](C(=O)N[C@@H](Cc1c[nH]cn1)C(=O)N[C@@H](Cc1ccccc1)C(=O)N[C@H](C(=O)N[C@@H](CC(C)C)C(=O)N[C@H](C(=O)N[C@@H](CCC(N)=O)C(=O)N[C@@H](CO)C(=O)N[C@@H](Cc1ccccc1)C(=O)N[C@@H](CS)C(=O)N[C@@H](CS)C(=O)N[C@@H](CC(=O)O)C(=O)N[C@@H](CC(N)=O)C(=O)N[C@@H](CC(=O)O)C(N)=O)[C@@H](C)CC)[C@@H](C)O)[C@@H](C)CC` [GADD45β69–86] (H-IALQIHFTLIQSFCCDND-NH2), in series [5], the koff is 0.0013 s⁻¹ and the kon turned out to be 315 M⁻¹ s⁻¹.

B1: GADD45β_(69–86) peptide (peptide)
peptide: IALQIHFTLIQSFCCDND
modifications: not fully specified (C-terminus); cysteine pairing not given here
notes: growth arrest and DNA damage-inducible 45β (GADD45β), residues 69-86 (the α-helix)
With B1, the Kd in series [6] was 3.71 µM.

B2: GADD45β: growth arrest and DNA damage-inducible 45β protein, binds MKK7 (protein, UniProt O75293 1-160, looked up)
Growth arrest and DNA …: MTLEELVACDNAAQKMQTVTAAVEELLVAAQRQDRLTVGVYESAKLMNVDPDSVVLCLLAIDEEEEDDIALQIHFTLIQSFCCDNDINIVRVSGMQRLAQLLGEPAETQGTTEARDLHCLLVTNPHTDAWKSHGLVEVASYCEESRGNNQWVPYISLQER
As to B2, the “effect on MEK1/2 activity, in words” value with MEK1/2 is given as “no effect”. In addition, the “effect on MKK3/6 activity, in words” value in the series with MKK3/6 is on record as “no effect”. The “effect on MKK4 activity, in words” value in the series on MKK4 was “no effect”. In the series on MKK7, the “binding to MKK7, in words” value was “binds tightly to MKK7” and the “inhibition of MKK7 enzymatic activity, in words” value is reported as “inhibits its enzymatic activity”.

A word on the koff: it is the first-order rate constant of dissociation. As a reminder, the kon is a measure of how fast the partners come together. In general, Kd refers to the concentration at which binding is half-saturated.
